# Reference: publication PMC4522657, “Identification of a DYRK1A Inhibitor that Induces Degradation of the Target Kinase using Co-chaperone CDC37 fused with Luciferase nanoKAZ” (Scientific Reports, 2015)
# Experiments:
# MAP2K5_Cascade = biological target: T1, MAP2K5_Cascade (Homo sapiens, UniProt Q13163); assay: Kinase panel, CaNDY 1 µM; assay type: biochemical; settings: CaNDY 1 µM relative to DMSO
# T1 construct: purchased Carna Biosciences
# LATS2 = biological target: T2, LATS2 (Homo sapiens, UniProt Q9NRM7); assay: Kinase panel, CaNDY 1 µM; assay type: biochemical; settings: CaNDY 1 µM relative to DMSO
# T2 construct: purchased Carna Biosciences
# Summary of the method: (§1)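 GST-tagged (N-term) full-length human kinases, baculovirus-expressed; 1% DMSO final; 1 h, RT; mobility shift; % inhibition vs no-inhibitor control from P/(P+S).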
# IKKα = biological target: T3, IKKα (Homo sapiens, UniProt O15111); assay: Kinase panel, CaNDY 1 µM; assay type: biochemical; settings: CaNDY 1 µM relative to DMSO
# T3 construct: purchased Carna Biosciences
# Summary of the method: as §1
# PKCζ = biological target: T4, PKCζ (Homo sapiens, UniProt Q05513); assay: Kinase panel, CaNDY 1 µM; assay type: biochemical; settings: CaNDY 1 µM relative to DMSO
# T4 construct: purchased Carna Biosciences
# Summary of the method: as §1
# SIK = biological target: T5, SIK (Homo sapiens, UniProt P57059); assay: Kinase panel, CaNDY 1 µM; assay type: biochemical; settings: CaNDY 1 µM relative to DMSO
# T5 construct: purchased Carna Biosciences
# Summary of the method: as §1
# WNK1 = biological target: T6, WNK1 (Homo sapiens, UniProt Q9H4A3); assay: Kinase panel, CaNDY 1 µM; assay type: biochemical; settings: CaNDY 1 µM relative to DMSO
# T6 construct: purchased Carna Biosciences
# Summary of the method: as §1
# BRAF(V600E)_Cascade = biological target: T7, BRAF(V600E)_Cascade (Homo sapiens, UniProt P15056, V600E); assay: Kinase panel, CaNDY 1 µM; assay type: biochemical; settings: CaNDY 1 µM relative to DMSO
# T7 construct: purchased Carna Biosciences
# Summary of the method: as §1
# MAP2K1_Cascade = biological target: T8, MAP2K1_Cascade (Homo sapiens, UniProt Q02750); assay: Kinase panel, CaNDY 1 µM; assay type: biochemical; settings: CaNDY 1 µM relative to DMSO
# T8 construct: purchased Carna Biosciences
# Summary of the method: as §1
# NuaK1 = biological target: T9, NuaK1 (Homo sapiens, UniProt O60285); assay: Kinase panel, CaNDY 1 µM; assay type: biochemical; settings: CaNDY 1 µM relative to DMSO
# T9 construct: purchased Carna Biosciences
# Summary of the method: as §1
# MINK = biological target: T10, MINK (Homo sapiens, UniProt Q8N4C8); assay: Kinase panel, CaNDY 1 µM; assay type: biochemical; settings: CaNDY 1 µM relative to DMSO
# T10 construct: purchased Carna Biosciences
# Summary of the method: as §1
# EPHB4 = biological target: T11, EPHB4 (Homo sapiens, UniProt P54760); assay: Kinase panel, CaNDY 1 µM; assay type: biochemical; settings: CaNDY 1 µM relative to DMSO
# T11 construct: purchased Carna Biosciences
# Summary of the method: as §1
# KIT = biological target: T12, KIT (Homo sapiens, UniProt P10721); assay: Kinase panel, CaNDY 1 µM; assay type: biochemical; settings: CaNDY 1 µM relative to DMSO
# T12 construct: purchased Carna Biosciences
# Summary of the method: as §1
# SRPK1 = biological target: T13, SRPK1 (Homo sapiens, UniProt Q96SB4); assay: Kinase panel, CaNDY 1 µM; assay type: biochemical; settings: CaNDY 1 µM relative to DMSO
# T13 construct: purchased Carna Biosciences
# Summary of the method: as §1
# MNK1 = biological target: T14, MNK1 (Homo sapiens, UniProt Q9BUB5); assay: Kinase panel, CaNDY 1 µM; assay type: biochemical; settings: CaNDY 1 µM relative to DMSO
# T14 construct: purchased Carna Biosciences
# Summary of the method: as §1
# BLK = biological target: T15, BLK (Homo sapiens, UniProt P51451); assay: Kinase panel, CaNDY 1 µM; assay type: biochemical; settings: CaNDY 1 µM relative to DMSO
# T15 construct: purchased Carna Biosciences
# Summary of the method: as §1
# MET(Y1235D) = biological target: T16, MET(Y1235D) (Homo sapiens, UniProt P08581, Y1235D); assay: Kinase panel, CaNDY 1 µM; assay type: biochemical; settings: CaNDY 1 µM relative to DMSO
# T16 construct: purchased Carna Biosciences
# Summary of the method: as §1
# SLK = biological target: T17, SLK (Homo sapiens, UniProt Q9H2G2); assay: Kinase panel, CaNDY 1 µM; assay type: biochemical; settings: CaNDY 1 µM relative to DMSO
# T17 construct: purchased Carna Biosciences
# Summary of the method: as §1
# MAP4K2 = biological target: T18, MAP4K2 (Homo sapiens, UniProt Q12851); assay: Kinase panel, CaNDY 1 µM; assay type: biochemical; settings: CaNDY 1 µM relative to DMSO
# T18 construct: purchased Carna Biosciences
# Summary of the method: as §1
# PKCδ = biological target: T19, PKCδ (Homo sapiens, UniProt Q05655); assay: Kinase panel, CaNDY 1 µM; assay type: biochemical; settings: CaNDY 1 µM relative to DMSO
# T19 construct: purchased Carna Biosciences
# Summary of the method: as §1
# LTK = biological target: T20, LTK (Homo sapiens, UniProt P29376); assay: Kinase panel, CaNDY 1 µM; assay type: biochemical; settings: CaNDY 1 µM relative to DMSO
# T20 construct: purchased Carna Biosciences
# Summary of the method: as §1
# MUSK = biological target: T21, MUSK (Homo sapiens, UniProt O15146); assay: Kinase panel, CaNDY 1 µM; assay type: biochemical; settings: CaNDY 1 µM relative to DMSO
# T21 construct: purchased Carna Biosciences
# Summary of the method: as §1
# PHKG1 = biological target: T22, PHKG1 (Homo sapiens, UniProt Q16816); assay: Kinase panel, CaNDY 1 µM; assay type: biochemical; settings: CaNDY 1 µM relative to DMSO
# T22 construct: purchased Carna Biosciences
# TRKC = biological target: T23, TRKC (Homo sapiens, UniProt Q16288); assay: Kinase panel, CaNDY 1 µM; assay type: biochemical; settings: CaNDY 1 µM relative to DMSO
# T23 construct: purchased Carna Biosciences
# PLK2 = biological target: T24, PLK2 (Homo sapiens, UniProt Q9NYY3); assay: Kinase panel, CaNDY 1 µM; assay type: biochemical; settings: CaNDY 1 µM relative to DMSO
# T24 construct: purchased Carna Biosciences
# CaMK2β = biological target: T25, CaMK2β (Homo sapiens, UniProt Q13554); assay: Kinase panel, CaNDY 1 µM; assay type: biochemical; settings: CaNDY 1 µM relative to DMSO
# T25 construct: purchased Carna Biosciences
# PKACα = biological target: T26, PKACα (Homo sapiens, UniProt P17612); assay: Kinase panel, CaNDY 1 µM; assay type: biochemical; settings: CaNDY 1 µM relative to DMSO
# T26 construct: purchased Carna Biosciences
# CK2α = biological target: T27, CK2α (Homo sapiens, UniProt P68400); assay: Western blot of kinase expression in HEK293 cells; assay type: cell-based; settings: CaNDY 2 μM, 4 days
# T27 construct: endogenous in cells; host or cells: HEK293
# Description: To check selectivity of CaNDY for other kinases, we first examined protein expression of several kinases in HEK293 cells treated with CaNDY (2 μM) for 4 days. […] Third, protein expression of these kinases targeted by CaNDY (DYRK1A, DYRK1B, CLK1, and Haspin) was reassessed by Western blot analysis as performed in Fig. 7b.
# Western blot analysis was performed using the antibodies described above. In brief, total cell lysates were separated by SDS-PAGE (5–20% gels; ATTO, Tokyo, Japan) under reducing conditions and then transferred to a PVDF membrane (PALL, SP, Brazil). Antibody reactions were performed with Can Get Signal® Immunoreaction Enhancer Solution (Toyobo). Peroxidase activities on the membrane were visualized with ECL Western Blotting Detection Reagents (GE Healthcare) or ImmunoStar® LD (Wako Pure Chemical Industries, Osaka, Japan), and a ChemiDoc^TM MP Imaging System (Bio-Rad, Hercules, CA, USA).
# FGFR3(K650E) = biological target: T28, FGFR3(K650E) (Homo sapiens, UniProt P22607, K650E); assay: Kinase panel, CaNDY 1 µM; assay type: biochemical; settings: CaNDY 1 µM relative to DMSO
# T28 construct: purchased Carna Biosciences
# PLK1 = biological target: T29, PLK1 (Homo sapiens, UniProt P53350); assay: Kinase panel, CaNDY 1 µM; assay type: biochemical; settings: CaNDY 1 µM relative to DMSO
# T29 construct: purchased Carna Biosciences
# T27 sequence (P68400 whole entry): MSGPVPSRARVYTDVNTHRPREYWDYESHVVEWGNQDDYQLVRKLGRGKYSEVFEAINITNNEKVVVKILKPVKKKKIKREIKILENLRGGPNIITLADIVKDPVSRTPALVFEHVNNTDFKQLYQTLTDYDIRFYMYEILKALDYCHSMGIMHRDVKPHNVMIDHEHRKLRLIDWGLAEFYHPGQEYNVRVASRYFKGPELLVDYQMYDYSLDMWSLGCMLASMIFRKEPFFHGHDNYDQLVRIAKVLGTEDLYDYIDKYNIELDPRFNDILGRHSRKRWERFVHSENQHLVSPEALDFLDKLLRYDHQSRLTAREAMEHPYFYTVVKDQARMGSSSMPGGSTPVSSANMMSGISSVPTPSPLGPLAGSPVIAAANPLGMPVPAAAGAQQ
# T15 sequence (P51451 whole entry): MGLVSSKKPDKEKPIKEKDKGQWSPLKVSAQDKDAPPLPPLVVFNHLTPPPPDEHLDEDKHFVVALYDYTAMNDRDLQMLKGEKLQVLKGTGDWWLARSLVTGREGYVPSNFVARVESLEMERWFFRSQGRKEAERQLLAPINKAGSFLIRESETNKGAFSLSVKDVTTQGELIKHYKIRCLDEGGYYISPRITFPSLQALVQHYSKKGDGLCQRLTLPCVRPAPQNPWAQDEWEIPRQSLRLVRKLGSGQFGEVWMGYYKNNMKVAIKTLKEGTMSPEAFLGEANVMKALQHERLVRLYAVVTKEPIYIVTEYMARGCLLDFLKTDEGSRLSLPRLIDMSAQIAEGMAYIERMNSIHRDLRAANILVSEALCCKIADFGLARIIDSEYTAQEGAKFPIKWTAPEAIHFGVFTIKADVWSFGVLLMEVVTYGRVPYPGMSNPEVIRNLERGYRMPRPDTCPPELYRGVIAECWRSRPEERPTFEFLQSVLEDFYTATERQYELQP
# T11 sequence (P54760 16-987): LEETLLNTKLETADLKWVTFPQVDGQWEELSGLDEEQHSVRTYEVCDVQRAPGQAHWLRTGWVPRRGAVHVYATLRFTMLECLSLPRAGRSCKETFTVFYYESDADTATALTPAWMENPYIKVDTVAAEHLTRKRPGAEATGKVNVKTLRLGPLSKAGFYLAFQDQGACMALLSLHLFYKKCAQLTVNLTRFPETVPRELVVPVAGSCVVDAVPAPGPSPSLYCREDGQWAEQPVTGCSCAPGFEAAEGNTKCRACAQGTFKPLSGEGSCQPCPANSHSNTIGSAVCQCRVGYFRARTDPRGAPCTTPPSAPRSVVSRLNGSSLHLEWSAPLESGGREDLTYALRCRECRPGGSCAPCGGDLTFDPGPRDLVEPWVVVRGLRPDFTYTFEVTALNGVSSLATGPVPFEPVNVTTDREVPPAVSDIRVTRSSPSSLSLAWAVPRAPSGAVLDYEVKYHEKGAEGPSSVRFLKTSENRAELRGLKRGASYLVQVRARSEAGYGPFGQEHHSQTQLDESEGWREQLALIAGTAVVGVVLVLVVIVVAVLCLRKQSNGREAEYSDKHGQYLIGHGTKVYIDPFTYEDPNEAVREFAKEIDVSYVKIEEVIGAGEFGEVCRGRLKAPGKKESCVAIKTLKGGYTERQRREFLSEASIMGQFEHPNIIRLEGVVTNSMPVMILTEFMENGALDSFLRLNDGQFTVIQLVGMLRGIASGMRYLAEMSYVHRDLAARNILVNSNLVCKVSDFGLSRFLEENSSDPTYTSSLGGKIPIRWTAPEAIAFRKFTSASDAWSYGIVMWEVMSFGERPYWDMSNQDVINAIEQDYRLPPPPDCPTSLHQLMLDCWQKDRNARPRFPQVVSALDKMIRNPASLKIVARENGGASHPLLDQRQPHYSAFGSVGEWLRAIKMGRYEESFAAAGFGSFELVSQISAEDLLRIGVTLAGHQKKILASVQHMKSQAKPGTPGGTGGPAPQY
# T1 sequence (Q13163 whole entry): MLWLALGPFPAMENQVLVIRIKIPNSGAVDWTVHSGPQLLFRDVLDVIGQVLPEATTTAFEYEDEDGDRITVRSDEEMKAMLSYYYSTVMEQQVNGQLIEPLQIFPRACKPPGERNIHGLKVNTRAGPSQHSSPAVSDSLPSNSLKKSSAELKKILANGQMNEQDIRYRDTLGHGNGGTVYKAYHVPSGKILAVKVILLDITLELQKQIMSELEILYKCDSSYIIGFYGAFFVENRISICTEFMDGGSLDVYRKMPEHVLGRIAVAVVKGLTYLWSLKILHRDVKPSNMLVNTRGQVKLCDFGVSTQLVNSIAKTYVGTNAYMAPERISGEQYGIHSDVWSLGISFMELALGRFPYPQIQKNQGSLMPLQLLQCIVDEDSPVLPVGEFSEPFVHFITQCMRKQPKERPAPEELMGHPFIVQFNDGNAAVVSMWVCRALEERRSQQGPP
# T21 sequence (O15146 24-869): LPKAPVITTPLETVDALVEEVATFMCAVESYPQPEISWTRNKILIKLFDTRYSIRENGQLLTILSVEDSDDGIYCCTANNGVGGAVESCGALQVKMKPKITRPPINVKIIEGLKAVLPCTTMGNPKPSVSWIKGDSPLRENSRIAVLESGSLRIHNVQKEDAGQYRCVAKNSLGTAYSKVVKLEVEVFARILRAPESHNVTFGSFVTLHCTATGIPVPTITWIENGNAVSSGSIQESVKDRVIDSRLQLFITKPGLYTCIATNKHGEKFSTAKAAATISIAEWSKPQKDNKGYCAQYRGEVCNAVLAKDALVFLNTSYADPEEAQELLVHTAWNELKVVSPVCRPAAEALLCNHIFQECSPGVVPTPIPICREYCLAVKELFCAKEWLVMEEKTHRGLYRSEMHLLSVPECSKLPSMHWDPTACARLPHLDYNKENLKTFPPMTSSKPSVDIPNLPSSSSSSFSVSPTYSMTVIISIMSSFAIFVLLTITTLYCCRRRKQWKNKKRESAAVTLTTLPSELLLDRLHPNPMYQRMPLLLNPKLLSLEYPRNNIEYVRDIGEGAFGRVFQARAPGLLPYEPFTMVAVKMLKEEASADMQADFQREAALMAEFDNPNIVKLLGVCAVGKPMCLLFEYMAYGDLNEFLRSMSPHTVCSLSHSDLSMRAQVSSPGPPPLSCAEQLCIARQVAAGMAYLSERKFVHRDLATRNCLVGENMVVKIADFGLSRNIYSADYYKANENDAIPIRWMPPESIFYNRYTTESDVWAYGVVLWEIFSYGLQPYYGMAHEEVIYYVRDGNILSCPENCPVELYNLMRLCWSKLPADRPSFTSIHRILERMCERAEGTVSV
# T14 sequence (Q9BUB5 whole entry): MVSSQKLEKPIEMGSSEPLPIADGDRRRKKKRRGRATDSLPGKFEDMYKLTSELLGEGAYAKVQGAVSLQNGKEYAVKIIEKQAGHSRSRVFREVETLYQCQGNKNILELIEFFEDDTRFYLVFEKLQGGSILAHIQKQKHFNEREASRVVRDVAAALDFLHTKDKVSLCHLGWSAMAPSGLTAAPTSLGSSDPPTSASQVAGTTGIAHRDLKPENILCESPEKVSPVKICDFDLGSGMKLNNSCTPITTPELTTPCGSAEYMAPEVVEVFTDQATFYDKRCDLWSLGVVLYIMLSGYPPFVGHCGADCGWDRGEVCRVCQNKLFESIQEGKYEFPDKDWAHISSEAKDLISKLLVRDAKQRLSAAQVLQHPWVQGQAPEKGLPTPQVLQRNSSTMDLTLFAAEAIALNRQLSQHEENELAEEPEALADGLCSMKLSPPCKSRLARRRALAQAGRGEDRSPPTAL
# T8 sequence (Q02750 whole entry): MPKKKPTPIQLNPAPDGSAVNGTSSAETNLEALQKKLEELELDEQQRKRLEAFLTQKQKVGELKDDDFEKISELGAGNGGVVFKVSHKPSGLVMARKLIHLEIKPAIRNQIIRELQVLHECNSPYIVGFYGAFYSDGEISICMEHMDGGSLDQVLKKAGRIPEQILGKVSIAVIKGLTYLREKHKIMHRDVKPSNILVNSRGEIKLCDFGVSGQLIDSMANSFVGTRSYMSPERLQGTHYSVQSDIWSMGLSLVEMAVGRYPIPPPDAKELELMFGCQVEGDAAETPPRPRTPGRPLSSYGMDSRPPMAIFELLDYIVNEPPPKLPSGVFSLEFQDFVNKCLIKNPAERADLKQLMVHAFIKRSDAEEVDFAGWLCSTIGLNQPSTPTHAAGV
# T18 sequence (Q12851 whole entry): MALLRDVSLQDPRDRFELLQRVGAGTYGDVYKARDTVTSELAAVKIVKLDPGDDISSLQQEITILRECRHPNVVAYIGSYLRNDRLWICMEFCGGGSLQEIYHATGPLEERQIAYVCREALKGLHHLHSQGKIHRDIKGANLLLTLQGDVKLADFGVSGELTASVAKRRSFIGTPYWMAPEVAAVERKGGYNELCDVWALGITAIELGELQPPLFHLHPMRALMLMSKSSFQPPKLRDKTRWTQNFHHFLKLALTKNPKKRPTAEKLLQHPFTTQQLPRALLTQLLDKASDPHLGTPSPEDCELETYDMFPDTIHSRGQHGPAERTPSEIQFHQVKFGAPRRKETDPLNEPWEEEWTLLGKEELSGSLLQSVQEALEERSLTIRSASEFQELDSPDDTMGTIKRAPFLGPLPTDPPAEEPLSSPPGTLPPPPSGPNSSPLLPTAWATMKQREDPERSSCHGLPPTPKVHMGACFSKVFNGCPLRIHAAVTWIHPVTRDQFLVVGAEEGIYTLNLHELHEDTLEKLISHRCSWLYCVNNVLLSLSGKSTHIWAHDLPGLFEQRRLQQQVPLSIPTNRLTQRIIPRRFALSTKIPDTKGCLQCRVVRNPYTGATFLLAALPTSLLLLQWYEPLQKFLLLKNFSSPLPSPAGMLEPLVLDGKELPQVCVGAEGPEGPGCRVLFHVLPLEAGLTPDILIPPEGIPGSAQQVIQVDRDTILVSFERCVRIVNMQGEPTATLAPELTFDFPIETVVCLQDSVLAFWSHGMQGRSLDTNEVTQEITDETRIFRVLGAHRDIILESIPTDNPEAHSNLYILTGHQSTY
compound,measurement,setting,value
"[H]/N=C1/NC(=O)C(=Cc2ccc3c(c2)CCO3)S1 [CaNDY, (Z)-5-[(2,3-dihydrobenzofuran-5-yl)methylene]-2-iminothiazolidin-4-one]",remaining activity at 1 µM,MAP2K5_Cascade,101%
same,%Activity,LATS2,98.1%
same,remaining activity at 1 µM,IKKα,95.7%
same,remaining activity at 1 µM,PKCζ,95.9%
same,%Activity,SIK,99.9%
same,%Activity,WNK1,98.8%
same,remaining activity at 1 µM,BRAF(V600E)_Cascade,105%
same,remaining activity at 1 µM,MAP2K1_Cascade,99.3%
same,%Activity,NuaK1,98.1%
same,remaining activity at 1 µM,MINK,83.7%
same,remaining activity at 1 µM,EPHB4,96.6%
same,remaining activity at 1 µM,KIT,99.3%
same,remaining activity at 1 µM,SRPK1,101%
same,remaining activity at 1 µM,MNK1,94.6%
same,remaining activity at 1 µM,BLK,101%
same,%Activity,MET(Y1235D),99.0%
same,remaining activity at 1 µM,SLK,96.9%
same,remaining activity at 1 µM,MAP4K2,76.7%
same,remaining activity at 1 µM,PKCδ,74.1%
same,remaining activity at 1 µM,LTK,96.9%
same,remaining activity at 1 µM,MUSK,98.4%
same,remaining activity at 1 µM,PHKG1,92.1%
same,remaining activity at 1 µM,TRKC,101%
same,%Activity,PLK2,95.9%
same,remaining activity at 1 µM,CaMK2β,98.2%
same,remaining activity at 1 µM,PKACα,88.9%
same,protein expression of CK2α,CK2α,did not decrease
same,remaining activity at 1 µM,FGFR3(K650E),101%
same,remaining activity at 1 µM,PLK1,99.2%
